In article PMC9395446, “First-in-human phase 1/1b study to evaluate sitravatinib in patients with advanced solid tumors” (Investigational New Drugs, 2022):

Experiment: Safety in phase 1/1b study (DLTs, TRAEs, TEAEs; CTCAE v4.03)
Type: in vivo, human
Excerpt: Safety assessments included evaluation of DLTs, AEs, physical examinations, vital sign measurements, electrocardiogram recordings and laboratory tests.
A DLT was defined as a grade ≥ 4 hematologic abnormality lasting ≥ 4 days; grade 3 thrombocytopenia with clinically significant bleeding; febrile neutropenia; clinically significant grade ≥ 3 non-hematologic AEs not related to underlying malignancy; intolerable grade 2 AEs; or toxicity resulting in an inability to deliver 80% of the dose during the first treatment cycle.
The safety population included all patients who received ≥ 1 dose of sitravatinib. […] The PK evaluable population included all patients with sufficient concentration-time data for PK parameter evaluation. The modified intent-to-treat (mITT) population included all phase 1b patients who received ≥ 1 dose of study drug.

[1] = safety population (N = 193), any grade

COCCNCc1ccc(-c2cc3nccc(Oc4ccc(NC(=O)C5(C(=O)Nc6ccc(F)cc6)CC5)cc4F)c3s2)nc1 [sitravatinib, Sitravatinib]
14 (43.8) n (%): Nervous system disorders TEAE, any grade (Phase 1)
16 (50.0) n (%): Infections and infestations TEAE, any grade (Phase 1) | Investigations TEAE, any grade (Phase 1)
12 (37.5) n (%): Cough TEAE, any grade (Phase 1) | TRAE leading to treatment modification (Phase 1)
7 (21.9) n (%): Blood and lymphatic system disorders TEAE, any grade (Phase 1) | Decreased appetite TRAE, any grade (Phase 1) | Dyspnea TEAE, any grade (Phase 1) | Edema peripheral TEAE, any grade (Phase 1) | Psychiatric disorders TEAE, any grade (Phase 1)
three: Patients with DLT (phase 1, 200 mg)
2.1%: Discontinuation due to diarrhea, nausea and fatigue (each) (safety population (N = 193))
8 (25.0) n (%): Back pain TEAE, any grade (Phase 1) | Diarrhea TRAE, any grade (Phase 1) | Hypertension TRAE, any grade (Phase 1)
0 n (%): Abdominal pain TRAE, any grade (Phase 1) | Abdominal pain TRAE, grade ≥3 (Phase 1) | Asthenia TEAE, grade ≥3 (Phase 1) | Blood creatinine increased TEAE, grade ≥3 (Phase 1) | Constipation TEAE, grade ≥3 (Phase 1) | Constipation TRAE, grade ≥3 (Phase 1) | Cough TEAE, grade ≥3 (Phase 1) | Decreased appetite TRAE, grade ≥3 (Phase 1) | Dizziness TRAE, grade ≥3 (Phase 1) | Dry mouth TEAE, grade ≥3 (Phase 1) | Dry mouth TRAE, grade ≥3 (Phase 1) | Dysphonia TEAE, grade ≥3 (Phase 1) | Dysphonia TRAE, grade ≥3 (Phase 1) | Hypokalemia TEAE, grade ≥3 (Phase 1) | Hypomagnesemia TEAE, grade ≥3 (Phase 1) | Hypothyroidism TRAE, grade ≥3 (Phase 1) | Injury, poisoning, procedural complications TEAE, grade ≥3 (Phase 1) | Nausea TRAE, grade ≥3 (Phase 1) | Proteinuria TRAE, grade ≥3 (Phase 1) | Rash TEAE, grade ≥3 (Phase 1) | Rash TRAE, grade ≥3 (Phase 1) | Stomatitis TEAE, grade ≥3 (Phase 1) | Stomatitis TRAE, grade ≥3 (Phase 1) | TRAE leading to death (Phase 1) | Vomiting TRAE, grade ≥3 (Phase 1) | Weight decreased TEAE, grade ≥3 (Phase 1) | Weight decreased TRAE, grade ≥3 (Phase 1)
5 (15.6) n (%): Anemia TEAE, any grade (Phase 1) | Constipation TEAE, any grade (Phase 1) | Dehydration TEAE, any grade (Phase 1) | Dizziness TEAE, any grade (Phase 1) | Dysphonia TEAE, any grade (Phase 1) | Hypertension TRAE, grade ≥3 (Phase 1) | Infections and infestations TEAE, grade ≥3 (Phase 1) | Rash TEAE, any grade (Phase 1) | TEAE leading to discontinuation (Phase 1)
2 (6.3) n (%): Blood and lymphatic system disorders TEAE, grade ≥3 (Phase 1) | Cardiac disorders TEAE, grade ≥3 (Phase 1) | Constipation TRAE, any grade (Phase 1) | Diarrhea TRAE, grade ≥3 (Phase 1) | Dizziness TRAE, any grade (Phase 1) | Dysphonia TRAE, any grade (Phase 1) | Hypophosphatemia TEAE, any grade (Phase 1) | Pain in extremity TEAE, any grade (Phase 1) | Proteinuria TEAE, any grade (Phase 1) | Proteinuria TRAE, any grade (Phase 1) | TRAE leading to discontinuation (Phase 1) | UTI TEAE, grade ≥3 (Phase 1) | Weight decreased TRAE, any grade (Phase 1)
13.5%: Patients discontinued due to TRAEs (safety population (N = 193))
150 mg: Maximum tolerated dose (MTD) (daily (QD), phase 1 dose escalation, mTPI method)
24 (75.0) n (%): Any TRAE (Phase 1)
21 (65.6) n (%): General disorders and administration site conditions TEAE, any grade (Phase 1) | Metabolism and nutrition disorders TEAE, any grade (Phase 1) | Skin and subcutaneous tissue disorders TEAE, any grade (Phase 1)
1 (3.1) n (%): Anemia TEAE, grade ≥3 (Phase 1) | Decreased appetite TEAE, grade ≥3 (Phase 1) | Dehydration TEAE, grade ≥3 (Phase 1) | Edema peripheral TEAE, grade ≥3 (Phase 1) | Fatigue TRAE, grade ≥3 (Phase 1) | Hypophosphatemia TEAE, grade ≥3 (Phase 1) | Lipase increased TEAE, grade ≥3 (Phase 1) | Nausea TEAE, grade ≥3 (Phase 1) | PPE syndrome TEAE, grade ≥3 (Phase 1) | PPE syndrome TRAE, grade ≥3 (Phase 1) | Psychiatric disorders TEAE, grade ≥3 (Phase 1) | Skin and subcutaneous tissue disorders TEAE, grade ≥3 (Phase 1) | Vomiting TEAE, grade ≥3 (Phase 1)
43.0%: TRAE fatigue [1]
9 (28.1) n (%): Headache TEAE, any grade (Phase 1) | Renal and urinary disorders TEAE, any grade (Phase 1) | Serious TEAE (Phase 1)
7.3%: Grade ≥ 3 TRAE fatigue (safety population (N = 193))
15.0%: Treatment modification due to fatigue (safety population (N = 193)) | Treatment modification due to hypertension (safety population (N = 193))
13 (40.6) n (%): Diarrhea TEAE, any grade (Phase 1) | Fatigue TRAE, any grade (Phase 1) | Nausea TEAE, any grade (Phase 1) | TEAE leading to treatment modification (Phase 1) | Vascular disorders TEAE, any grade (Phase 1)
40.4%: TRAE hypertension [1]
120 mg: Recommended dose for further exploration (QD, defined in phase 1b due to tolerability)
22 (68.8) n (%): Respiratory, thoracic and mediastinal disorders TEAE, any grade (Phase 1)
one: Patients with DLT (phase 1, 80 mg)
19 (59.4) n (%): Musculoskeletal and connective tissue disorders TEAE, any grade (Phase 1)
6 (18.8) n (%): Dry mouth TEAE, any grade (Phase 1) | Investigations TEAE, grade ≥3 (Phase 1) | Nausea TRAE, any grade (Phase 1) | Vomiting TRAE, any grade (Phase 1)
10.4%: Grade ≥ 3 TRAE diarrhea (safety population (N = 193))
11 (34.4) n (%): Hypertension TEAE, any grade (Phase 1) | Vomiting TEAE, any grade (Phase 1)
10 (31.3) n (%): TRAE grade ≥3 (Phase 1)
20.7%: Grade ≥ 3 TRAE hypertension (safety population (N = 193))
6 (18.8) 6 (18.8) n (%): Endocrine disorders TEAE, any grade (Phase 1) | Hypertension TEAE, grade ≥3 (Phase 1) | Hypothyroidism TEAE, any grade (Phase 1) | Vascular disorders TEAE, grade ≥3 (Phase 1)
0.5%: TRAE leading to death (cardiac arrest) (overall population)
90.2%: Patients with any TRAE (safety population (N = 193))
15 (46.9) n (%): Decreased appetite TEAE, any grade (Phase 1)
53.4%: Patients with grade ≥ 3 TRAEs (safety population (N = 193))
14.3%: DLT-evaluable phase 1 patients with a DLT (phase 1, 10–200 mg)
62.2%: TRAEs leading to treatment modification (dose reduction or interruption) (safety population (N = 193))
4 (12.5) n (%): Asthenia TEAE, any grade (Phase 1) | Dry mouth TRAE, any grade (Phase 1) | Gastrointestinal disorders TEAE, grade ≥3 (Phase 1) | Injury, poisoning, procedural complications TEAE, any grade (Phase 1) | Metabolism and nutrition disorders TEAE, grade ≥3 (Phase 1) | PPE syndrome TEAE, any grade (Phase 1) | PPE syndrome TRAE, any grade (Phase 1) | Rash TRAE, any grade (Phase 1) | Respiratory, thoracic and mediastinal disorders TEAE, grade ≥3 (Phase 1) | Stomatitis TEAE, any grade (Phase 1) | Weight decreased TEAE, any grade (Phase 1)
4/28: DLT-evaluable phase 1 patients with a DLT (n/N) (phase 1, 10–200 mg)
20 (62.5) n (%): TEAE grade ≥3 (Phase 1)
3.6%: Each reported DLT (fatigue, mucosal inflammation, peripheral sensory neuropathy, PPE syndrome), share of phase 1 population (phase 1, n = 1 each)
11.9%: Treatment modification due to PPE syndrome (safety population (N = 193))
31 (96.9) n (%): Any TEAE (Phase 1)
3 (9.4) n (%): Blood creatinine increased TEAE, any grade (Phase 1) | Cardiac disorders TEAE, any grade (Phase 1) | Diarrhea TEAE, grade ≥3 (Phase 1) | Dyspnea TEAE, grade ≥3 (Phase 1) | Fatigue TEAE, grade ≥3 (Phase 1) | General disorders and administration site conditions TEAE, grade ≥3 (Phase 1) | Hypokalemia TEAE, any grade (Phase 1) | Hypomagnesemia TEAE, any grade (Phase 1) | Hyponatremia TEAE, any grade (Phase 1) | Hyponatremia TEAE, grade ≥3 (Phase 1) | Hypothyroidism TRAE, any grade (Phase 1) | Lipase increased TEAE, any grade (Phase 1) | Neoplasms benign, malignant, unspecified TEAE, any grade (Phase 1) | Neoplasms benign, malignant, unspecified TEAE, grade ≥3 (Phase 1) | Serious TRAE (Phase 1) | Stomatitis TRAE, any grade (Phase 1) | TEAE leading to death (Phase 1) | UTI TEAE, any grade (Phase 1)
50.8%: TRAE diarrhea [1]
25 (78.1) n (%): Gastrointestinal disorders TEAE, any grade (Phase 1)
17.6%: Treatment modification due to diarrhea (safety population (N = 193))
30.1%: TRAE nausea [1]
17 (53.1) n (%): Fatigue TEAE, any grade (Phase 1)
